Experimental data: EP2020405A1, “Substituted aryl or heteroarylpiperidine derivatives as melanocortin-4 receptor modulators” (Santhera Pharmaceuticals (Schweiz) AG, priority 2007, dated 2009)

Assays:
hMC-4R [1] = target: T1, hMC-4R (Homo sapiens, UniProt P32245); assay: Functional assay (membrane based cAMP fluorescence polarization, agonistic activity); format: biochemical; parameters: concentration or dose not given beside the values; conditions: cAMP produced compared to stimulation with NDP-alpha-MSH
T1 construct: expressed in transfected cells; host or cells: HEK293
Description: Agonistic activity of human melanocortin receptors is determined in a homogeneous membrane based assay.
Membrane preparations from HEK293 cells expressing the human melanocortin receptors are added. After a short preincubation period, an appropriate amount of ATP, GTP and the cAMP antibody is added and the plate is further incubated before the fluorescence labeled cAMP conjugate is dispensed. The plate is incubated for 2 h at 4°C before it is read on a fluorescence polarization microplate reader. The amount of cAMP produced as a response to a test compound is compared to the production of cAMP resulting from stimulation with NDP-alpha-MSH.

hMC-4R [2] = target: T1, hMC-4R; assay: Membrane binding assay (fluorescence polarization, competition with fluorescence labeled NDP-alpha-MSH); conditions: HEK293 cell membrane preparations expressing human melanocortin receptors; 5 h at room temperature

T1 sequence (P32245 whole entry): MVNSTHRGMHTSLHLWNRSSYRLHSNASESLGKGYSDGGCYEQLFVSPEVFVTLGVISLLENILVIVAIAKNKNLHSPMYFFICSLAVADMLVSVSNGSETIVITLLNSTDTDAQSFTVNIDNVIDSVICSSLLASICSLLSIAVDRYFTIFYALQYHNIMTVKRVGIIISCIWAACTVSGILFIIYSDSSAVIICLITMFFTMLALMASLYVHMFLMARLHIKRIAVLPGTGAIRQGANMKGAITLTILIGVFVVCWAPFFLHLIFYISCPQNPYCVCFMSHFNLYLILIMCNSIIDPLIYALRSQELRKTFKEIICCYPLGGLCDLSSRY

Row | SMILES | % activation functional assay (hMC-4R [1]) [%] | IC50 (hMC-4R [2]) [nM]
1 | O=C(C(Cc1ccc(Cl)cc1Cl)N1CCCCC1)N1CCC(c2cc(F)ccc2CCN2CCCC2)CC1 (stereo not drawn) [Example 15] | 0 | 180
2 | CCC(Cc1cc(Cl)ccc1C1CCN(C(=O)C(Cc2ccc(Cl)cc2Cl)n2cncn2)CC1)CN1CCCC1 (stereo not drawn) [Example 22] | 0 | 17
3 | CCC(COc1cc(Cl)ccc1C1CCN(C(=O)[C@@H](Cc2ccc(Cl)cc2Cl)N2CCCC2)CC1)N1CCCC1 (stereo partly drawn) [Example 3] | 0 | 2.1
4 | O=C(C(Cc1ccc(Cl)cc1Cl)Nc1cccnc1)N1CCC(c2ccc(Cl)cc2OCCN2CCCC2)CC1 (stereo not drawn) [Example 27] | 0 | 5.9
5 | O=C(C(Cc1ccc(Cl)cc1Cl)N1CCOCC1)N1CCC(c2ccc(Cl)cc2OCCN2CCCC2)CC1 (stereo not drawn) [Example 25] | 0 | 100
6 | CCC(CN1CCCC1)Oc1cc(Cl)ccc1C1CCN(C(=O)[C@@H](Cc2ccc(Cl)cc2Cl)N2CCCC2)CC1 (stereo partly drawn) [Example 4] | 0 | 2.4
7 | Cc1ccn(C(Cc2ccc(Cl)cc2Cl)C(=O)N2CCC(c3ccc(Cl)cc3OCCN3CCCC3)CC2)n1 (stereo not drawn) [Example 34] | 0 | 220
8 | O=C(C(Cc1ccc(Cl)cc1Cl)n1cncn1)N1CCC(c2ccc(Cl)cc2OCCN2CCCC2)CC1 (stereo not drawn) [Example 23] | 0 | 7.7
9 | O=C(C(Cc1ccc(Cl)cc1Cl)N1CCCCC1)N1CCC(c2ccc(Cl)cc2OCCN2CCCC2)CC1 (stereo not drawn) [Example 10] | 14 | 62
